Values of other authors as cited in paper doi:10.1101/2023.11.06.565863v1 (bioRxiv, 2023).

Key:
[1] = system: R1441C-LRRK2 MEFs
[2] = system: R1441C-LRRK2 MEFs; remark: listed apart in the source

C[C@@H]1CN(c2cc(-c3n[nH]c4ccc(OC5(C)CC5)cc34)ncn2)C[C@H](C)O1 [MLi2]
Ciliogenesis defects of R1441C-LRRK2 MEFs vs littermate wildtype MEFs [1]: reverted
Centrosome cohesion defects of R1441C-LRRK2 MEFs vs littermate wildtype MEFs [2]: reverted
